According to ChEMBL document CHEMBL4819127, “Syntheses and antimicrobial activities of ogipeptin derivatives” (Bioorg Med Chem Lett, 2021):
≈ marks a conversion by molar mass, not a printed value. Calls of active or inactive are those of the source. The calls are words filed in the database; no cut-off is given here.

How the values were obtained:
Pseudomonas aeruginosa [1] = assay: Antibacterial activity against multidrug resistance Pseudomonas aeruginosa; assay type: functional, organism-based
Acinetobacter = assay: Antibacterial activity against Acinetobacter sp.; assay type: functional, organism-based
Klebsiella pneumoniae [2] = assay: Antibacterial activity against Klebsiella pneumoniae; assay type: functional, organism-based
Escherichia coli [3] = assay: Antibacterial activity against Escherichia coli; assay type: functional, organism-based
Klebsiella pneumoniae [4] = assay: Antibacterial activity against Klebsiella pneumoniae IHMA 1387833 assessed as bacterial growth inhibition; assay type: functional
[5] = Cytotoxicity against HEK293 cells; assay type: cell-based; conditions: human, HEK293 cells
Pseudomonas aeruginosa [6] = assay: Antibacterial activity against Pseudomonas aeruginosa ATCC 27853 assessed as bacterial growth inhibition; assay type: functional
HepG2 = assay: Cytotoxicity against human HepG2 cells; assay type: functional
Klebsiella pneumoniae [7] = assay: Antibacterial activity against Klebsiella pneumoniae ATCC 700721 assessed as bacterial growth inhibition; assay type: functional
Pseudomonas aeruginosa [8] = assay: Antibacterial activity against Pseudomonas aeruginosa ATCC 15692 assessed as bacterial growth inhibition; assay type: functional
Escherichia coli [9] = assay: Antibacterial activity against Escherichia coli ATCC 47076 assessed as bacterial growth inhibition; assay type: functional
Pseudomonas aeruginosa [10] = assay: Antibacterial activity against Pseudomonas aeruginosa IHMA 1375891 assessed as bacterial growth inhibition; assay type: functional
Klebsiella pneumoniae [11] = assay: Antibacterial activity against Klebsiella pneumoniae JCM 1662 assessed as bacterial growth inhibition; assay type: functional
Acinetobacter baumannii [12] = assay: Antibacterial activity against Acinetobacter baumannii IHMA 1312713 assessed as bacterial growth inhibition; assay type: functional
Klebsiella pneumoniae [13] = assay: Antibacterial activity against Klebsiella pneumoniae ATCC 10031 assessed as bacterial growth inhibition; assay type: functional
Acinetobacter baumannii [14] = assay: Antibacterial activity against Acinetobacter baumannii ATCC 19606 assessed as bacterial growth inhibition; assay type: functional; conditions: ATCC 19606 = CIP 70.34 = JCM 6841

MIC (Klebsiella pneumoniae [4]) | MIC (Pseudomonas aeruginosa [6]) | MIC (Klebsiella pneumoniae [7]) | MIC (Pseudomonas aeruginosa [8]) | MIC (Escherichia coli [9]) | MIC (Pseudomonas aeruginosa [10]) | MIC (Klebsiella pneumoniae [11]) | MIC (Acinetobacter baumannii [12]) | MIC (Klebsiella pneumoniae [13]) | MIC (Acinetobacter baumannii [14]) | SMILES | Activity (Pseudomonas aeruginosa [1]) | Activity (Acinetobacter) | Activity (Klebsiella pneumoniae [2]) | Activity (Escherichia coli [3]) | CC50 [5] | CC50 (HepG2)
 |  |  |  |  |  |  |  |  |  | C/C=C1\NC(=O)C(NC(=O)CCCCC/C=C\CCCCCC)C(O)CNC(=O)C(C(O)CN)NC(=O)C(C(O)CN)NC(=O)[C@H](CCCNC(=N)N)NC[C@H](CC(C)C)NC(=O)[C@H](CCN)NC1=O (stereo not given in full) | Active | inactive | inactive | Active |  | 
> 256 µg/mL | 32 µg/mL (≈ 29.5 µM) | > 256 µg/mL | > 256 µg/mL | 8 µg/mL (≈ 7.37 µM) | > 256 µg/mL | > 256 µg/mL | > 256 µg/mL | > 256 µg/mL | > 256 µg/mL | C/C=C1\NC(=O)C(NC(=O)C2CCCN(C(=O)c3ccc(Cl)c(Cl)c3)C2)C(O)CNC(=O)C(C(O)CN)NC(=O)C(C(O)CN)NC(=O)[C@H](CCCNC(=N)N)NC(=O)[C@H](CC(C)C)NC(=O)[C@H](CCN)NC1=O (stereo not given in full) |  |  |  |  | > 64 µM | > 64 µM
> 256 µg/mL | 8 µg/mL (≈ 7.76 µM) | 2 µg/mL (≈ 1.94 µM) | > 256 µg/mL | 2 µg/mL (≈ 1.94 µM) | > 256 µg/mL | > 256 µg/mL | > 256 µg/mL | 2 µg/mL (≈ 1.94 µM) | 8 µg/mL (≈ 7.76 µM) | C/C=C1\NC(=O)C(NC(=O)CCc2nc(-c3ccc(OC)cc3)no2)C(O)CNC(=O)C(C(O)CN)NC(=O)C(C(O)CN)NC(=O)[C@H](CCCNC(=N)N)NC(=O)[C@H](CC(C)C)NC(=O)[C@H](CCN)NC1=O (stereo not given in full) |  |  |  |  | > 64 µM | > 64 µM
256 µg/mL (≈ 226 µM) | 16 µg/mL (≈ 14.1 µM) | 128 µg/mL (≈ 113 µM) | 64 µg/mL (≈ 56.4 µM) | 8 µg/mL (≈ 7.05 µM) | 128 µg/mL (≈ 113 µM) | 256 µg/mL (≈ 226 µM) | 32 µg/mL (≈ 28.2 µM) | 8 µg/mL (≈ 7.05 µM) | 16 µg/mL (≈ 14.1 µM) | C/C=C1\NC(=O)C(NC(=O)c2ccc(-c3cc(-c4ccc(OCCCCC)cc4)on3)cc2)C(O)CNC(=O)C(C(O)CN)NC(=O)C(C(O)CN)NC(=O)[C@H](CCCNC(=N)N)NC(=O)[C@H](CC(C)C)NC(=O)[C@H](CCN)NC1=O (stereo not given in full) |  |  |  |  |  | 35 µM
> 256 µg/mL | 8 µg/mL (≈ 7.77 µM) | 16 µg/mL (≈ 15.5 µM) | > 256 µg/mL | 2 µg/mL (≈ 1.94 µM) | > 256 µg/mL | > 256 µg/mL | > 256 µg/mL | 8 µg/mL (≈ 7.77 µM) | > 256 µg/mL | C/C=C1\NC(=O)C(NC(=O)CCc2nnc(-c3ccc(OC)cc3)[nH]2)C(O)CNC(=O)C(C(O)CN)NC(=O)C(C(O)CN)NC(=O)[C@H](CCCNC(=N)N)NC(=O)[C@H](CC(C)C)NC(=O)[C@H](CCN)NC1=O (stereo not given in full) |  |  |  |  | > 64 µM | > 64 µM
> 256 µg/mL | 16 µg/mL (≈ 14.9 µM) | 8 µg/mL (≈ 7.44 µM) | 16 µg/mL (≈ 14.9 µM) | 9 µg/mL (≈ 8.37 µM) | 256 µg/mL (≈ 238 µM) | 16 µg/mL (≈ 14.9 µM) | 128 µg/mL (≈ 119 µM) | 8 µg/mL (≈ 7.44 µM) | 4 µg/mL (≈ 3.72 µM) | C/C=C1\NC(=O)C(NC(=O)CCCCCCCCC(=O)OCc2ccccc2)C(O)CNC(=O)C(C(O)CN)NC(=O)C(C(O)CN)NC(=O)[C@H](CCCNC(=N)N)NC(=O)[C@H](CC(C)C)NC(=O)[C@H](CCN)NC1=O (stereo not given in full) |  |  |  |  | > 64 µM | > 64 µM
 |  |  |  |  |  |  |  |  |  | C/C=C1\NC(=O)C(NC(=O)CCC/C=C\CCCCCC)C(O)CNC(=O)C(C(O)CN)NC(=O)C(C(O)CN)NC(=O)[C@H](CCCNC(=N)N)NC[C@H](CC(C)C)NC(=O)[C@H](CCN)NC1=O (stereo not given in full) | Active | inactive | inactive | Active |  | 
> 256 µg/mL | > 256 µg/mL | 32 µg/mL (≈ 31.9 µM) | > 256 µg/mL | 2 µg/mL (≈ 2 µM) | > 256 µg/mL | > 256 µg/mL | > 256 µg/mL | 8 µg/mL (≈ 7.98 µM) | 256 µg/mL (≈ 255 µM) | C/C=C1\NC(=O)C(NC(=O)CCc2nc(-c3ccncc3)no2)C(O)CNC(=O)C(C(O)CN)NC(=O)C(C(O)CN)NC(=O)[C@H](CCCNC(=N)N)NC(=O)[C@H](CC(C)C)NC(=O)[C@H](CCN)NC1=O (stereo not given in full) |  |  |  |  | > 64 µM | > 64 µM
 |  |  |  |  |  |  |  |  |  | C/C=C1\NC(=O)C(NC(=O)CCCCCCCCCCC)C(O)CNC(=O)C(C(O)CN)NC(=O)C(C(O)CN)NC(=O)[C@H](CCCNC(=N)N)NC[C@H](CC(C)C)NC(=O)[C@H](CCN)NC1=O (stereo not given in full) | Active | inactive | inactive | Active |  | 
> 256 µg/mL | 8 µg/mL (≈ 7.4 µM) | > 256 µg/mL | 128 µg/mL (≈ 118 µM) | 4 µg/mL (≈ 3.7 µM) | 128 µg/mL (≈ 118 µM) | > 256 µg/mL | 64 µg/mL (≈ 59.2 µM) | 4 µg/mL (≈ 3.7 µM) | 8 µg/mL (≈ 7.4 µM) | C/C=C1\NC(=O)C(NC(=O)c2cn(-c3ccccc3)nc2-c2ccc(Cl)cc2)C(O)CNC(=O)C(C(O)CN)NC(=O)C(C(O)CN)NC(=O)[C@H](CCCNC(=N)N)NC(=O)[C@H](CC(C)C)NC(=O)[C@H](CCN)NC1=O (stereo not given in full) |  |  |  |  | > 64 µM | > 64 µM
